Reference: patent US10828303B2, “Composition comprising combination of TRH analog with arundic acid, and pharmaceutically acceptable salt of arundic acid” (Brivention Pharmaceutical (Shanghai) Inc., priority 2016, dated 2020)
“And” between values parts separate entries of the source, which are not always exact repeats. Equal entries are not always repeated.

How the values were obtained:
Type in all cases: in vivo, rat
[1] = system: hippocampal CA1 neuronal cells; test: HE staining of hippocampus CA1, degree of neuronal death; settings: HE-stained specimens after 28 days of administration; arundic acid 30, taltirelin 10, combination 10+3 mg/kg/day
Description: After completion of the Transfer test, the rats were anesthetized, and the chest cavity was opened to expose the heart. A ventricle was incised to insert a catheter from the heart to the carotid artery, and 50 mL or more of heparinized physiological saline was perfused. Subsequently, 50 mL or more of 4% paraformaldehyde phosphate buffer was perfused. The perfusion procedures were performed with ligation of the main artery. After perfusion-fixation, the brain was removed and immersion-fixed in 4% paraformaldehyde phosphate buffer.
20-μm serial thick frozen sections were prepared from this brain using a cryostat. Alternating serial sections were stained with hematoxylin-eosin. The degree of neuronal death in the stained tissue was semi-quantitatively evaluated under an optical microscope.

[2] = system: four-vessel occlusion model of rats; test: Morris water maze Transfer test in four-vessel occlusion model; settings: 4-VO rats, oral 28 d: arundic acid 30, taltirelin 10, combination 10+3 mg/kg/day; for Residence time in Zone 3: Table 6
Description: The water temperature of the water maze during the experiment was kept at 23° C. […] A Transfer test was performed 3 days after the final administration of test drugs. For the Transfer test, the platform was removed, and the pool was filled with water to a water depth of 31 cm. To enable the rats to memorize surrounding various spatial arrangements, cues, such as posters and photographs, were placed on the wall. The cues always remained at the same locations during the experiment (FIG. 1: a plan view of Morris water maze, and the laboratory layout). Three days after the final administration of the test drug, the platform was removed and a Transfer test in which the pool was filled with water to a water depth of 31 cm was performed. […] Each rat was given only one trial, and the time was 180 seconds. The starting point was on the side opposite to the platform (see FIG. 1). In the Transfer test, the time spent in each Zone and the number of times the rats crossed over the platform location were determined. The behaviors of the rats in each trial were automatically analyzed with a CCD camera and the SMART (produced by Kyoto […]) behavioral analysis program by binarization of the white color of rats' fur and black ash color of the surrounding area. Significant differences between the groups in spatial memory according to the Morris water maze method were determined by the nonparametric Dunnett's multiple comparison test. 6) After completion of the Morris water maze test, the brain of each rat was perfusion-fixed with 4% paraformaldehyde. The details are as follows.

[3] = system: four-vessel occlusion model of rats; test: Morris water maze Hidden test in four-vessel occlusion model; settings: for Hidden test Latency / Hidden test Total distance moved: 4-VO rats; for Hidden test Latency / Hidden test Total distance moved / Time to reach the platform in the Hidden test, in words / Total distance moved in the Hidden test, in words: oral 28 d: arundic acid 30, taltirelin 10, combination 10+3 mg/kg/day; for Hidden test, At the time of grouping Latency: before administration, 1 week after 4-VO; for Time to reach the platform in the Hidden test, in words / Total distance moved in the Hidden test, in words: vs Group 2 control
Description: A Morris water maze test was performed by using a circular pool (168 cm in diameter and 40 cm in depth) filled with water, and a platform (10 cm in diameter and 30 cm in height) for escape of rats. In Zone 3, one transparent plastic escape platform (10 cm in diameter and 30 cm in height) was set at a location 40 cm away from the center of the pool, and […] away from the periphery of the pool. The water temperature of the water maze during the experiment was kept at 23° C. (±1.5° C.). A Hidden test was performed at the time of grouping 1 week after four-vessel occlusion, and on the day following the final administration of test drugs. For the Hidden test, the pool was filled with water to a height of 1 cm above the platform (water depth: 31 cm). A Transfer test was performed 3 days after the final administration of test drugs. For the Transfer test, the platform was removed, and the pool was filled with water to a water depth of 31 cm. To enable the rats to memorize surrounding various spatial arrangements, cues, such as posters and photographs, were placed on the wall. The cues always remained at the same locations during the experiment (FIG. 1: a plan view of Morris water maze, and the laboratory layout).
3) One week after restoration of blood flow, 5 trials of the Hidden test according to the Morris water maze test were performed with intervals of 30 minutes, and a cut-off time of 180 seconds. The rats were grouped by using swimming escape latency (time to reach the platform) as an index. After grouping, oral administration of the drug(s) was started. 4) The drug(s) were orally administered for 28 days. 5) On the day following the final administration of the drug, 5 trials of the Hidden Test for assessing spatial memory by using a water maze were performed with intervals of 30 minutes, and a cut-off time of 180 seconds. After 30 minutes, the platform was removed, and a Transfer test was performed with the pool being filled with water to a water depth of 31 cm.
From the starting point in Zone 1, the rats were thrown into a water maze with their heads being directed toward the outside of the water maze. The location of the platform was fixed at a point (corresponding to E in FIG. 1) on the east side in the water maze (corresponding to Zone 3 in FIG. 1). The maximum time of one trial was 180 seconds. When a rat reached the platform within 180 seconds, the rat was allowed to stand on the platform for 15 seconds. […] This rat was expected to learn the location of the platform by using surrounding various spatial arrangements as cues during the 180 seconds of the Hidden test and 15 seconds of being allowed to stand on the platform (Hidden test). In the Hidden test, swimming trajectory to the goal, swimming distance, swimming escape latency (time to reach the platform), and average swimming speed were measured per trial.
The behaviors of the rats in each trial were automatically analyzed with a CCD camera and the SMART (produced by Kyoto L Giken) behavioral analysis program by binarization of the white color of rats' fur and black ash color of the surrounding area.
Significant differences between the groups in spatial memory according to the Morris water maze method were determined by the nonparametric Dunnett's multiple comparison test. 6) After completion of the Morris water maze test, the brain of each rat was perfusion-fixed with 4% paraformaldehyde. The details are as follows.

Structure (SMILES)	Hippocampal CA1 neuronal cell death / regeneration, in words [1]	Residence time in Zone 1 ([2]; Mean ± S.E.) [s]	Residence time in Zone 1 (%) ([2]; Mean ± S.E.)	Residence time in Zone 2 ([2]; Mean ± S.E.) [s]	Residence time in Zone 2 (%) ([2]; Mean ± S.E.)	Residence time in Zone 3 (%) ([2]; Mean ± S.E.)	Residence time in Zone 4 ([2]; Mean ± S.E.) [s]	Residence time in Zone 4 (%) ([2]; Mean ± S.E.)	Transfer test Platform Crossing Times ([2]; Mean ± S.E.)	Transfer test Residence time in Zone 3 ([2]; Mean ± S.E.) [s]	Residence time in Zone 3 ([2]; Mean ± S.E.) [s]	Residence time in Zone 3 ([2]; individual rat, 3 mg/kg/day)	Residence time in Zone 1 ([2]; individual rat, 3 mg/kg/day)	Residence time in Zone 1 (%) ([2]; individual rat, 3 mg/kg/day)	Residence time in Zone 2 ([2]; individual rat, 3 mg/kg/day)	Residence time in Zone 2 (%) ([2]; individual rat, 3 mg/kg/day)	Residence time in Zone 3 (%) ([2]; individual rat, 3 mg/kg/day)	Residence time in Zone 4 ([2]; individual rat, 3 mg/kg/day)	Residence time in Zone 4 (%) ([2]; individual rat, 3 mg/kg/day)	Transfer test Platform Crossing Times ([2]; individual rat, 3 mg/kg/day)	also measured
CCCCCC[C@@H](CCC)C(=O)O [Arundic acid, (R)-(−)-2-propyloctanoic acid]	promoted regeneration of hippocampal CA1 neuronal cells	41.6 ± 8.7	22.8 ± 4.3	42.0 ± 10.9	23.0 ± 5.5	34.6 ± 5.1	34.9 ± 83	19.6 ± 4.7	5.5 ± 1.4	62 ± 8.4	61.9 ± 8.4	82.9 s and 66.0 s and 43.6 s and 55.2 s	24.0 s and 32.5 s and 63.9 s and 45.8 s	13.3% and 19.3% and 33.3% and 25.4%	16.9 s and 34.4 s and 68.2 s and 48.3 s	9.4% and 20.4% and 35.5% and 26.8%	46.0% and 39.1% and 22.7% and 30.6%	56.5 s and 35.7 s and 16.4 s and 31.0 s	31.3% and 21.2% and 8.5% and 17.2%	6 and 9 and 2 and 5	Hidden test Latency ([3]; Mean ± S.E.): 78 ± 5.2 s; Hidden test Total distance moved ([3]; Mean ± S.E.): 17.4 ± 2.1 m; Hidden test, At the time of grouping Latency ([3]; Mean ± S.E.): 102 ± 9.2 s; Hidden test Latency ([3]; individual rat, 3 mg/kg/day): 73.8 s and 82.2 s and 90.3 s and 66.5 s; Hidden test Total distance moved ([3]; individual rat, 3 mg/kg/day): 13.0 m and 15.8 m and 17.9 m and 22.8 m; Hidden test, At the time of grouping Latency ([3]; individual rat): 112.5 s and 86.9 s and 123.2 s and 87 s; Spatial learning capacity and spatial memory capacity in the Morris water maze test, in words ([3]; oral 28 d: arundic acid 30, combination 10+3 mg/kg/day): did not affect spatial learning capacity and spatial memory capacity; Time to reach the platform in the Hidden test, in words [3]: no improvement in time to reach the platform; Total distance moved in the Hidden test, in words [3]: not considered to be significantly improved
CN1C(=O)C[C@@H](C(=O)N[C@@H](Cc2c[nH]cn2)C(=O)N2CCC[C@H]2C(N)=O)NC1=O [Taltirelin, N-[(4S)-1-methyl-2,6-dioxohexahydropyrimidine-4-carbonyl]-L-histidyl-L-prolinamide]	shedding was observed	39.3 ± 5.4	21.7 ± 3.0	34.2 ± 10.3	19.0 ± 5.8	31.6 ± 2.4	50.2 ± 8.5	27.6 ± 4.6	5.3 ± 1.4	57 ± 4.1	57.1 ± 4.1	58.5 s and 66.9 s and 47.1 s and 56 s	24.5 s and 44.4 s and 38.6 s and 49.7 s	13.6% and 24.8% and 21.2% and 27.3%	63 s and 30.4 s and 29.6 s and 14.1 s	35.1% and 17.0% and 16.2% and 7.7%	32.6% and 37.3% and 25.8% and 30.7%	33.6 s and 37.5 s and 67 s and 62.5 s	18.7% and 20.9% and 36.8% and 34.3%	8 and 7 and 4 and 2	Hidden test Latency ([3]; Mean ± S.E.): 83 ± 6.6 s; Hidden test Total distance moved ([3]; Mean ± S.E.): 16.1 ± 1.6 m; Hidden test, At the time of grouping Latency ([3]; Mean ± S.E.): 102 ± 8.3 s; Hidden test Latency ([3]; individual rat, 3 mg/kg/day): 68.9 s and 88.1 s and 76.4 s and 99.1 s; Hidden test Total distance moved ([3]; individual rat, 3 mg/kg/day): 19.8 m and 15.0 m and 12.3 m and 17.1 m; Hidden test, At the time of grouping Latency ([3]; individual rat): 100.1 s and 97.2 s and 85.5 s and 124.8 s; Time to reach the platform in the Hidden test, in words [3]: no improvement in time to reach the platform; Total distance moved in the Hidden test, in words [3]: not considered to be significantly improved
